Results taken from US12509423B2, “Compound, aldehyde dehydrogenase 2 activating agent, pharmaceutical composition, and therapeutic and/or prophylactic drug” (Alchemedicine, Inc., priority 2020, dated 2025).
pIC50: −log10 of the molar value.

What was measured:
[1] = molecular target: T1, human recombinant ALDH2 enzyme (Homo sapiens, UniProt P05091); test: ALDH2 activation effect (acetaldehyde oxidation rate, PicoProbe Aldehyde dehydrogenase Activity Assay Kit); assay type: biochemical
T1 construct: purchased BioVision Inc
T1 sequence (P05091 18-517): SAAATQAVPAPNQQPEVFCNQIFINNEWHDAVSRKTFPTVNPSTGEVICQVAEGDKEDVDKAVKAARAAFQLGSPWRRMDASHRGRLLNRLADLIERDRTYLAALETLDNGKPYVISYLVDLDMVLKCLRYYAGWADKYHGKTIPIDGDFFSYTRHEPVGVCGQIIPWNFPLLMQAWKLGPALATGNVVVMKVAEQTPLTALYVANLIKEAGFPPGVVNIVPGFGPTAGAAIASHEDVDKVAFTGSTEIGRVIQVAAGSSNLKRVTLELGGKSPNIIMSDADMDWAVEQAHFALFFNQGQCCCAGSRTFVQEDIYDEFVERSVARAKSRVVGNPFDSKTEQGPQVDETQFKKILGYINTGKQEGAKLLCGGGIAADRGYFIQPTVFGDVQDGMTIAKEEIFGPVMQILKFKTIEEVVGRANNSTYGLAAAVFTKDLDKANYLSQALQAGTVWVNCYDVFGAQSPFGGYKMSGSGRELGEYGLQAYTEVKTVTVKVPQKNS
Method: The activation effect of each test compound on the acetaldehyde oxidation rate of ALDH2 was measured with the following method. A test was conducted by using a commercially available PicoProbe™ Aldehyde dehydrogenase Activity Assay Kit (manufactured by BioVision Inc.) with reference to an instruction attached to the product under the following conditions. To each well of a 384-well plate, the following (1) to (3) were sequentially added with a pipette: • (1) 10 μL of solution obtained by dissolving and diluting a human recombinant ALDH2 enzyme (manufactured by BioVision Inc.) with ALDH assay Buffer to reach 3-μg/mL; • (2) 10 μL of 30 μM or 90 μM test compound solution (with 3% DMSO) prepared by using ALDH assay Buffer; and • (3) 10 μL of Reaction mix composed with ratio of 8.6 μL of ALDH assay Buffer, 0.6 μL of PicoProbe, 0.3 μL of Substrate Mix, and 1.5 μL of Acetaldehyde.
Before addition of (3), incubation was performed at room temperature for 5 minutes. After addition of (3), fluorescence intensity was measured at room temperature every 2.5 minutes over a period of 180 minutes by using an EnSight (manufactured by PerkinElmer Inc.). Wavelengths of 535 nm and 587 nm were used for fluorescence intensities of excitation and -emission, respectively.

[2] = Metabolic stability with human hepatic microsomes; assay type: in vitro ADME; details: human hepatic microsomes 0.1 mg protein/mL, 0.1 μmol/L test compound, after 30 minutes, 37° C.
Method: The specific method is as follows.
• (1) Fifty microliter-portions were taken from 0.2 μmol/L test compound diluted with β-NADPH solution. • (2) Fifty microliters of 0.2 mg protein/mL human hepatic microsome solution was added to each (except for a sample with a reaction time of 0 minutes). • (3) Incubation was performed with shaking at 37° C. for 30 minutes (concentration in reaction sample: 0.1 μmol/L test compound, 0.1 mg protein/mL human hepatic microsome). • (4) After incubation, 400 μL of methanol was added to terminate the reaction. • (5) To the sample with a reaction time of 0 minutes, 50 μL of 0.2 mg protein/mL hepatic microsome solution was added. • (6) Each of the samples from (4) and (5) was left to stand at −20° C. for 30 minutes or longer, and then centrifuged at 4° C. and 3,000 rpm for approximately 10 minutes. • (7) The supernatant was subjected to measurement with LC/MS/MS, and, based on the peak area obtained for the unchanged form, the residual rate (%) of the unchanged form was calculated as that for the case with an incubation time of 0 minutes was assumed as 100%.

[3] = Metabolic stability with mouse hepatic microsomes; assay type: in vitro ADME
Method: Metabolic stability in mouse hepatic microsomes was evaluated with the following method.
• (1) Mouse hepatic microsomes: 20 mg/mL • (2) Test compound: 1.1 mM DMSO solution • (3) Potassium phosphate buffer solution: 66.7 mM (pH 7.4) • (4) NADPH solution: 10 mM in potassium phosphate buffer solution • (5) Quenching solution: 0.5% formic acid-acetonitrile solution with warfarin as internal standard substance 2. Method
Into a propylene tube, 971.5 μL of the potassium phosphate buffer solution and 27.5 μL of the mouse hepatic microsomes were put and suspended. Thereto, 1 μL of a test compound was added, and 180 μL was taken from this mixture and transferred into another tube. The mixture was preincubated at 37° C. for 5 minutes, and 20 μL of the NADPH solution (for the case with an incubation time of 30 minutes) or 20 μL of the potassium phosphate buffer solution (for the case with an incubation time of 0 minutes) was then added thereto. After incubation, 200 μL of the quenching solution was added to terminate the reaction. Subsequently, centrifugation was performed at 3220×g for 20 minutes, and the concentration of the unchanged form of the test compound in 200 μL of the supernatant was measured with LC-MS/MS. On the basis of the peak area obtained for the unchanged form, the residual rate (%) of the unchanged form was calculated as that for the case with an incubation time of 0 minutes was assumed as 100%.

[4] = system: pain induced by carrageenan (mechanical allodynia); test: Suppression effect on pain induced by carrageenan (von Frey escape score); assay type: in vivo, C57BL/6J mice; details: mean ± SE
Method: This experiment was carried out with reference to Science Translational Medicine 6, 251ra118 (2014). Animals used were 7-week-old male C57BL/6J mice (Charles River Laboratories Japan, Inc.). To induce mechanical allodynia to a sole part, carrageenan was subcutaneously administered to the sole of the left hind limb of each mouse. The escape response against mechanical stimulation 180 minutes after the induction was measured by using a von Frey filament with bending force (0.16 grams) to the sole surface of the left hind limb in the ascending direction. […] The commercially available statistical program SAS SYSTEM (SAS Software Release 9.1.3; SAS Institute Japan Ltd.) was used for the significance test.

[5] = molecular target: hERG (human Ether-a-go-go Related Gene) channel (Homo sapiens, UniProt Q12809); test: hERG channel inhibition effect (whole-cell patch clamp); assay type: cell-based; details: 22 to 25° C.
Method: The hERG (human Ether-a-go-go Related Gene) channel inhibition effect of each test compound was examined with the following patch clamp method.
Under a fixed potential, an hERG current that passed through the whole cell membrane was recorded with the whole-cell patch clamp method.
To confirm the hERG current, the holding potential was set to −80 mV, and depolarizing pulses at −50 mV for 110 msec and at 20 mV for 4 sec and a subsequent repolarizing pulse at −50 mV for 2 sec were provided at a frequency of once per 15 seconds. After the stabilization of the hERG tail current obtained was confirmed, an application was initiated. The pulses were continuously provided also during the application.
The sampling frequency was set to 5 kHz, and Lowpass Filter was applied at 2 kHz. […]
hERG currents were measured by using an amplifier for patch clamping (Axopatch 200B, Molecular Devices, LLC), and electric signals obtained were recorded in a computer via recording/analysis software for patch clamping (pCLAMP 10, Molecular Devices, LLC).
The maximum tail current value was determined on the basis of the current value with the depolarizing pulse at −50 mV for 110 msec, and the change rate (suppression rate) 5 minutes after the initiation of application to the maximum tail current value before application of the test compound was calculated.

Sequence of hERG (human Ether-a-go-go Related Gene) channel (Q12809 whole entry): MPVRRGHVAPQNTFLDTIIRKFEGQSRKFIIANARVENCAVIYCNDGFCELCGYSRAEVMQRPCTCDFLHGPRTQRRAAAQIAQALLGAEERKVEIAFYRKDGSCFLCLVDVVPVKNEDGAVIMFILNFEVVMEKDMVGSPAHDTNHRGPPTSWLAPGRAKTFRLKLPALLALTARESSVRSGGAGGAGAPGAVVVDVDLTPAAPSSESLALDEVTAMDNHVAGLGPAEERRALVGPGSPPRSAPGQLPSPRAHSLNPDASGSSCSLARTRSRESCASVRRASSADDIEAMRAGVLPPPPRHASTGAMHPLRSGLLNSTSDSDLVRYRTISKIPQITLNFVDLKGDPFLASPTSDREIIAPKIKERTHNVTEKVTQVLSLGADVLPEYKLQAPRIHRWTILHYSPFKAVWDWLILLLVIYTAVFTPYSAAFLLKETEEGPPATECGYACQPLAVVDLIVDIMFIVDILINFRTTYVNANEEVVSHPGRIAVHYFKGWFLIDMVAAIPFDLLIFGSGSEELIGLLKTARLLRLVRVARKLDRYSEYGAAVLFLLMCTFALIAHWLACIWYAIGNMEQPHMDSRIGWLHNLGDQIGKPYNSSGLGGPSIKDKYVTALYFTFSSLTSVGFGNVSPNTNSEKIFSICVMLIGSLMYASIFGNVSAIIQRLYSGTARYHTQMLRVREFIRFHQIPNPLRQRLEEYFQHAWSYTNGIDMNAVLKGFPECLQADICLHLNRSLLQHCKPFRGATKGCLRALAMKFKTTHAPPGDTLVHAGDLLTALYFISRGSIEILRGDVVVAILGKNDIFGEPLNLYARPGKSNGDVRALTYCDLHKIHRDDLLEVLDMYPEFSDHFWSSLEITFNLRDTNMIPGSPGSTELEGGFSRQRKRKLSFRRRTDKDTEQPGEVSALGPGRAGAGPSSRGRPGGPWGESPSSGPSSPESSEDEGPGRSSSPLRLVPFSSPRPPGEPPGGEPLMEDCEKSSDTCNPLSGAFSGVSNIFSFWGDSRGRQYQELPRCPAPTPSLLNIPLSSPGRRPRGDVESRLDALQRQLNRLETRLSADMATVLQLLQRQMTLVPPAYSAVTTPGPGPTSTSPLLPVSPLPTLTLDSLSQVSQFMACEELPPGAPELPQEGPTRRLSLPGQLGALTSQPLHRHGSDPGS

- acetaldehyde oxidation rate (rate with no test compound assumed as 100%) ([1]; concentration of test compound 10 μM): 196%
- acetaldehyde oxidation rate (rate with no test compound assumed as 100%) ([1]; concentration of test compound 30 μM): 238%
- Residual rate (%) of unchanged form [2]: 90%
- metabolic stability in mouse hepatic microsomes (in words) [3]: confirmed to have stability
- Residual rate (%) of unchanged form ([3]; mouse hepatic microsomes, after 30 minutes, 37° C., NADPH): 90%
SMILES: COCc1ccc(CNC(=O)c2cc(-c3ncccc3CO)ccc2F)cc1F [Example 1, 2-Fluoro-N-(3-fluoro-4-(methoxymethyl)benzyl)-5-(3-(hydroxymethyl)pyridin-2-yl)benzamide]
- Pain-related total score ([4]; 2 mg/kg s.c. three times, 180 min after induction with carrageenan): 10.5 ± 1.6
- Pain-related total score ([4]; 2 mg/kg s.c. three times, Pre (before carrageenan treatment)): 3.0 ± 0.3
- Pain-related total score ([4]; 6 mg/kg s.c. three times, 180 min after induction with carrageenan, significant difference from Vehicle group): 8.3 ± 1.0
- Pain-related total score ([4]; 6 mg/kg s.c. three times, Pre (before carrageenan treatment)): 3.0 ± 0.3
- Pain-related total score ([4]; 20 mg/kg s.c. three times, 180 min after induction with carrageenan): 8.6 ± 1.4
- Pain-related total score ([4]; 20 mg/kg s.c. three times, Pre (before carrageenan treatment)): 3.0 ± 0.3
- pIC50 [5]: < 4.00
